Patent US11582969B2, “Non-nematicidal composition and use thereof” (BioAtlantis Limited, priority 2013, dated 2023)
Marks after values point to notes of the source that are not given here.

Columns and labels:
[1] = tested on: potatoes grown in plots infested with Globodera pallida; test: Field trial 2013: potato yield with isolated bioactives in plots infested with Globodera pallida; type: in vivo, Solanum tuberosum; conditions: 2013, average yield per drill (2.59 m^2)
Text: Differences in efficacy achieved with Composition 1 and Composition 2 in field trials between 2008-2012 pointed to a differential effect of bioactive levels within the two compositions (Example 1). Laboratory trials on grass species grown in the presence of Meloidogyne minor identified fucan (fucoidan) as one of the bioactives responsible for enhancing growth (Example 2). Despite lower levels of fucoidan, Composition 1 also achieved equivalent increases in root growth in the same trial as compared with the purified fucoidan. […] A field trial was undertaken in 2013 to further determine which bioactives or combinations of bioactives are responsible for conferring enhancements in total and marketable yield in nematode infested growth media. As in previous trials, the forms of glucan and fucan used were laminarin and fucoidan respectively.
Bioactives were isolated and stock solutions prepared to contain glucan alone, mannitol alone, glucan+mannitol, fucan+mannitol and glucan+fucan. The efficacy of the bioactive fractions were assessed in plots known to be infested with Globodera pallida. Treatments were fully randomized with plots of approximately 16 m^2 in area and 6 drills wide. Twelve tubers were planted per drill. One metre spacing was placed between blocks with two drills fallow between treatments. The dimensions of the drills were 0.7 meters wide and 3.7 meters in length. The cultivar Navan, (Solanum tuberosum L. ev. Navan) was planted and compositions applied by foliar spray at 50% post-emergence and at approximately seven day intervals thereafter. Foliar spray ceased once senescence was noticed. For each of the 5 treatments, a total of 621 g of bioactives was applied per Ha. A nematicidal treatment, Vydate, was applied at full rate as a separate treatment. Standard compound fertilizers and fungicides were applied at recommended rates and intervals. The crop was harvested in November. Total harvest weight and marketable yield (>35 mm category) was measured, with comparisons between bioactive treatments and nematicide made by means of One-Way ANOVA.

Creeping bentgrass = test: Pre-soaking seeds: early root growth; type: in vivo; conditions: seeds pre-soaked 16 hours, 7 day period, n = 10
Protocol: (§1) The effects of Composition 1 and fucoidan on Creeping bentgrass and Perennial ryegrass root growth were examined in the laboratory setting in the presence or absence of plant parasitic nematodes in 2010. Seeds were pre-soaked in test materials for 16 hours each and left to germinate on wet USGA sand at 16° C. Roots were analysed using WinRHIZO image analysis system, following a 7 day period to assess mean root length following applications (n=10 seedlings per treatment). Experiments were also undertaken to assess the efficacy of Composition 1 and fucoidan in enhancing root length in the presence or absence of plant pathogenic nematodes. Seedlings (×7 replication) were established in sand columns containing USGA specification sand and sprayed on a weekly basis with either Composition 1 or fucoidan. […] Fucoidan was applied at a rate equivalent to 600 g/Ha. Root knot nematodes of the species Meloidogyne minor were inoculated around the roots in week 1, as second stage juveniles. Roots were analysed using WinRHIZO image analysis system following a 25 days period.

Perennial ryegrass = test: Pre-soaking seeds: early root growth; type: in vivo; conditions: seeds pre-soaked 16 hours, 7 day period
Protocol: as §1

[2] = tested on: Creeping bentgrass, with or without Meloidogyne minor; test: Seedling root length in sand columns with or without Meloidogyne minor; type: in vivo; conditions: weekly spray, 25 days, n = 7
Protocol: as §1

[3] = tested on: Perennial ryegrass, with or without Meloidogyne minor; test: as above; type: in vivo; conditions: weekly spray, 25 days, n = 7
Protocol: as §1

[4] = inoculation with Meloidogyne minor
[5] = no inoculation with Meloidogyne minor

## OC[C@@H](O)[C@@H](O)[C@H](O)[C@H](O)CO [Mannitol-alone, mannitol]
[1]
  Total Weight (g): 9652** g
[1]; >35 mm
  Marketable weight (g): 9324* g
[1]; >35 mm, listed as mannitol-alone
  Marketable weight: 9324 g
[1]; listed as mannitol-alone
  Total Weight: 9652 g

## fucoidan
Creeping bentgrass
  Mean Root length (mm): 39.1 ^a mm
Perennial ryegrass; n = 10
  Mean Root length (mm): 48.9 ^b mm
Perennial ryegrass; n = 10, listed as fucoidan
  Mean Root length (mm): 48.9 mm
[2]; [4]
  mean root length (mm), +Mm: 20.2^b mm
[2]; [5]
  mean root length (mm), −Mm: 27.1^b mm
[3]; [4]
  mean root length (mm), +Mm: 102.2^b mm
[3]; [5]
  mean root length (mm), −Mm: 129.2^c mm

## laminarin [Glucan-alone]
[1]
  Total Weight: 10524 g
[1]; >35 mm
  Marketable weight: 10218 g
